According to PubChem BioAssay AID330 (DTP/NCI, 2004):
Several values for one entry are separate records, joined by “and”; a condition that tells them apart may be missing. Identical values can stand only once. Inconclusive results and toxic doses are left out. Rule for the calls: active = survival T/C of 150% or more; inactive = T/C below 125% in these data. Square brackets hold non-standard residues; d marks the D form. Peptide text beside a SMILES is read from it. * marks the point of attachment. Nle = CCCC[CH](N)C(=O)O; Boc = CC(C)(C)OC(=O)*; OtBu = CC(C)(C)O*

System: P388 leukemia ip, CD2F1 mice, survival T/C
Assay: NCI In Vivo Anticancer Drug Screen. Data for tumor model P388 Leukemia (intraperitoneal) in CD2F1 (CDF1) mice
Conditions: endpoint: median survival time, higher = longer survival
Summary of the method: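 Mice carrying the transplanted tumor received test compound or vehicle. Survival was recorded in each group, and the value is the treated-group measurement divided by that of the vehicle-treated control group.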

[1] = dose: 50.0 mg/kg/injection, schedule: Q01DX005 (ip), vehicle: saline
[2] = dose: 100.0 mg/kg/injection, schedule: Q01DX005 (ip), vehicle: saline
[3] = dose: 200.0 mg/kg/injection, schedule: Q01DX005 (ip), vehicle: saline
[4] = dose: 12.5 mg/kg/injection, schedule: Q01DX009 (ip), vehicle: distilled water + Tween-80
[5] = dose: 50.0 mg/kg/injection, schedule: Q01DX009 (ip), vehicle: Klucel (hydroxypropylcellulose) (HPC)
[6] = dose: 100.0 mg/kg/injection, schedule: Q01DX009 (ip), vehicle: Klucel (hydroxypropylcellulose) (HPC)
[7] = dose: 200.0 mg/kg/injection, schedule: Q01DX009 (ip), vehicle: Klucel (hydroxypropylcellulose) (HPC)
[8] = dose: 50.0 mg/kg/injection, schedule: Q01DX005 (ip), vehicle: Klucel (hydroxypropylcellulose) (HPC)
[9] = dose: 100.0 mg/kg/injection, schedule: Q01DX005 (ip), vehicle: Klucel (hydroxypropylcellulose) (HPC)
[10] = dose: 200.0 mg/kg/injection, schedule: Q01DX005 (ip), vehicle: Klucel (hydroxypropylcellulose) (HPC)

Measured: T/C

COC(=O)[C@]12CCC(C)(C)C[C@H]1C1=CC[C@@H]3[C@@]4(C)C[C@H](O)[C@H](OC5OC(CO)C(O)C(O)C5O)C(CO)(CO)[C@@H]4CC[C@@]3(C)[C@]1(C)C[C@H]2O (stereo partly drawn)
inactive: dose: 2.5 mg/kg/injection, schedule: Q01DX005 (ip), vehicle: Klucel (hydroxypropylcellulose) (HPC) 94 % of control | dose: 5.0 mg/kg/injection, schedule: Q01DX005 (ip), vehicle: Klucel (hydroxypropylcellulose) (HPC) 95 % of control | dose: 10.0 mg/kg/injection, schedule: Q01DX005 (ip), vehicle: Klucel (hydroxypropylcellulose) (HPC) 100 % of control | dose: 20.0 mg/kg/injection, schedule: Q01DX005 (ip), vehicle: Klucel (hydroxypropylcellulose) (HPC) 101 % of control

O=C(NC(CCS(=O)(=O)n1ccnc1)C(=O)OCc1ccccc1)OCc1ccccc1 (stereo not drawn)
inactive: dose: 12.5 mg/kg/injection, schedule: Q01DX009 (ip), vehicle: other 97 % of control | dose: 25.0 mg/kg/injection, schedule: Q01DX009 (ip), vehicle: other 104 % of control | dose: 50.0 mg/kg/injection, schedule: Q01DX009 (ip), vehicle: other 106 % of control | dose: 100.0 mg/kg/injection, schedule: Q01DX009 (ip), vehicle: other 97 % of control | dose: 200.0 mg/kg/injection, schedule: Q01DX009 (ip), vehicle: other 90 % of control

CC(C)(Br)C(=O)/C=C/c1ccccc1
inactive: dose: 60.0 mg/kg/injection, schedule: Q01DX005 (ip), vehicle: saline with Tween-80 105 % of control | dose: 120.0 mg/kg/injection, schedule: Q01DX005 (ip), vehicle: saline with Tween-80 115 % of control

CCCCC(N)C(=O)NC(CCSC)C(N)=O (stereo not drawn) (H-[Nle]-Met-NH2; configuration not given here)
inactive: [1] 100 % of control | [2] 105 % of control | [3] 100 % of control

CCOC(=O)C1=C(C)NC(C)=C(C(=O)OCC)C1c1ccc(Cl)cc1
inactive: dose: 50.0 mg/kg/injection, schedule: Q01DX009 (ip), vehicle: saline with Tween-80 88 % of control | dose: 100.0 mg/kg/injection, schedule: Q01DX009 (ip), vehicle: saline with Tween-80 94 % of control | dose: 200.0 mg/kg/injection, schedule: Q01DX009 (ip), vehicle: saline with Tween-80 95 % of control | dose: 400.0 mg/kg/injection, schedule: Q01DX009 (ip), vehicle: saline with Tween-80 93 % of control

CNCC(C(=O)c1ccccc1)C(=O)c1ccccc1
inactive: dose: 50.0 mg/kg/injection, schedule: Q01DX005 (ip), vehicle: saline with Tween-80 95 % of control | dose: 100.0 mg/kg/injection, schedule: Q01DX005 (ip), vehicle: saline with Tween-80 101 % of control | dose: 200.0 mg/kg/injection, schedule: Q01DX005 (ip), vehicle: saline with Tween-80 110 % of control

NC(=O)CCNC(=O)CCCNC(=O)CCC[c-]1[c-][c-][c-][c-]1.[Fe].[c-]1[c-][c-][cH-][c-]1
inactive: [4] 111 % of control and 119 % of control | dose: 25.0 mg/kg/injection, schedule: Q01DX009 (ip), vehicle: distilled water + Tween-80 115 % of control | dose: 100.0 mg/kg/injection, schedule: Q01DX009 (ip), vehicle: distilled water + Tween-80 123 % of control

c1ccc(C(c2ccccc2)[P+](c2ccccc2)(c2ccccc2)c2ccccc2)cc1
inactive: dose: 0.15 mg/kg/injection, schedule: Q01DX009 (ip), vehicle: Klucel (hydroxypropylcellulose) (HPC) 101 % of control | dose: 0.31 mg/kg/injection, schedule: Q01DX009 (ip), vehicle: Klucel (hydroxypropylcellulose) (HPC) 109 % of control and 114 % of control | dose: 0.63 mg/kg/injection, schedule: Q01DX009 (ip), vehicle: Klucel (hydroxypropylcellulose) (HPC) 111 % of control | dose: 1.25 mg/kg/injection, schedule: Q01DX009 (ip), vehicle: Klucel (hydroxypropylcellulose) (HPC) 118 % of control and 123 % of control and 86 % of control

O=C1NC(=O)C2=C1CCC2
inactive: dose: 3.13 mg/kg/injection, schedule: Q01DX009 (ip), vehicle: distilled water + Tween-80 98 % of control | dose: 6.25 mg/kg/injection, schedule: Q01DX009 (ip), vehicle: distilled water + Tween-80 104 % of control | [4] 114 % of control

CN(C)c1ccc(C2OC3(CCCCC3)C[N+]23CCCC3)cc1 (stereo not drawn)
inactive: dose: 3.12 mg/kg/injection, schedule: Q01DX009 (ip), vehicle: saline with Tween-80 100 % of control | dose: 6.25 mg/kg/injection, schedule: Q01DX009 (ip), vehicle: saline with Tween-80 104 % of control | dose: 12.5 mg/kg/injection, schedule: Q01DX009 (ip), vehicle: saline with Tween-80 86 % of control

CC(=O)Nc1ccc(S(=O)(=O)NC2C(O)OC(CO)C(O)C2O)cc1 (stereo not drawn)
inactive: [1] 95 % of control | [2] 105 % of control | [3] 97 % of control

Cc1oc2c(C)c3oc(=O)cc(C)c3cc2c1CN
inactive: dose: 12.5 mg/kg/injection, schedule: Q01DX001 (ip), vehicle: Klucel (hydroxypropylcellulose) (HPC) 111 % of control | dose: 25.0 mg/kg/injection, schedule: Q01DX001 (ip), vehicle: Klucel (hydroxypropylcellulose) (HPC) 96 % of control

CC1(C)CC(OC(=S)S)CC(C)(C)N1O
inactive: dose: 100.0 mg/kg/injection, schedule: Q04DX002 (ip), vehicle: saline 100 % of control | dose: 200.0 mg/kg/injection, schedule: Q04DX002 (ip), vehicle: saline 98 % of control | dose: 400.0 mg/kg/injection, schedule: Q04DX002 (ip), vehicle: saline 100 % of control

O=C1C=CC(O)C2C1CC13SSC4(CC5C(=O)C=CC(O)C5N4C1=O)C(=O)N23 (stereo not drawn)
inactive: dose: 4.0 mg/kg/injection, schedule: Q01DX009 (ip), vehicle: Klucel (hydroxypropylcellulose) (HPC) 107 % of control | dose: 8.0 mg/kg/injection, schedule: Q01DX009 (ip), vehicle: Klucel (hydroxypropylcellulose) (HPC) 102 % of control

Cc1[nH]c(=O)[nH]c(=O)c1/C=C/C(=O)O
inactive: dose: 25.0 mg/kg/injection, schedule: Q01DX009 (ip), vehicle: Klucel (hydroxypropylcellulose) (HPC) 100 % of control | [5] 100 % of control | [6] 102 % of control | [7] 102 % of control

c1ccc2c(c1)[nH]c1c3ccccc3sc21
inactive: dose: 60.0 mg/kg/injection, schedule: Q01DX005 (ip), vehicle: Klucel (hydroxypropylcellulose) (HPC) 106 % of control | dose: 120.0 mg/kg/injection, schedule: Q01DX005 (ip), vehicle: Klucel (hydroxypropylcellulose) (HPC) 107 % of control | dose: 240.0 mg/kg/injection, schedule: Q01DX005 (ip), vehicle: Klucel (hydroxypropylcellulose) (HPC) 105 % of control

COc1cc2ccc3cnccc3c2cc1OC
inactive: dose: 12.5 mg/kg/injection, schedule: Q01DX009 (ip), vehicle: water 99 % of control | dose: 25.0 mg/kg/injection, schedule: Q01DX009 (ip), vehicle: water 99 % of control | dose: 50.0 mg/kg/injection, schedule: Q01DX009 (ip), vehicle: water 103 % of control | dose: 100.0 mg/kg/injection, schedule: Q01DX009 (ip), vehicle: water 99 % of control | dose: 200.0 mg/kg/injection, schedule: Q01DX009 (ip), vehicle: water 113 % of control

CSCCC(NC(=O)OC(C)(C)C)C(=O)NC(Cc1ccccc1)C(=O)NCC(=O)OC(C)(C)C (stereo not drawn) (Boc-Met-Phe-Gly-OtBu; configuration not given here)
inactive: [8] 93 % of control | [9] 97 % of control | [10] 107 % of control

CN1CCc2cc3c(cc2[C@H]1[C@@H]1OC(=O)c2c1ccc1c2OCO1)OCO3
inactive: dose: 6.25 mg/kg/injection, schedule: Q01DX005 (ip), vehicle: saline with Tween-80 101 % of control | dose: 12.5 mg/kg/injection, schedule: Q01DX005 (ip), vehicle: saline with Tween-80 97 % of control

Cc1ncoc1C(=O)Nc1ccc([N+](=O)[O-])cc1[N+](=O)[O-]
inactive: dose: 100.0 mg/kg/injection, schedule: Q04DX002 (ip), vehicle: Klucel (hydroxypropylcellulose) (HPC) 103 % of control | dose: 200.0 mg/kg/injection, schedule: Q04DX002 (ip), vehicle: Klucel (hydroxypropylcellulose) (HPC) 100 % of control | dose: 400.0 mg/kg/injection, schedule: Q04DX002 (ip), vehicle: Klucel (hydroxypropylcellulose) (HPC) 105 % of control

Cn1cnc([N+](=O)[O-])c1Sc1ccncc1S(N)(=O)=O
inactive: [8] 118 % of control | [9] 102 % of control | [10] 108 % of control

Nc1nc2ccc([N+](=O)[O-])cc2[nH]1
inactive: [5] 99 % of control | [6] 101 % of control | [7] 90 % of control

CC(C)CC(=O)Cc1nc2n(c1O)C(=N)N=N2
inactive: dose: 60.0 mg/kg/injection, schedule: Q01DX005 (ip), vehicle: saline 105 % of control | dose: 120.0 mg/kg/injection, schedule: Q01DX005 (ip), vehicle: saline 98 % of control | dose: 240.0 mg/kg/injection, schedule: Q01DX005 (ip), vehicle: saline 110 % of control
